In article PMC4809600, “The Influence of Chronic Wound Extracts on Inflammatory Cytokine and Histatin Stability” (PLoS ONE, 2016):
Where no end group is shown, it is not given here.

Key:
[1] = Stability in chronic wound extracts (CWE), capillary zone electrophoresis; format: in vitro ADME, human; conditions: 37°C, CZE; for Percentage intact, CWE 2h / Percentage intact, CWE 4h / Percentage intact, CWE 8h / Percentage intact, CWE 16h / Percentage intact, CWE 24h / Percentage intact, CWE 48h / Percentage intact, CWE 72h / Percentage intact, CWE 96h: 1 mg/ml in PBS mixed 1:1 with CWE (1 mg/ml protein, pool of 5 donors) in PBS, UV 200 nm, ratio to imidazole
From the text: (§1) Debridement tissue was obtained from chronic ulcers of 15 patients with therapy resistant (arterio-venous) leg ulcers, according to procedures described earlier. In brief, moist, easily removable debridement material, essentially blood free, was collected from the ulcer surface and divided equally into two different solutions: (i) PBS (B. Braun, Melsungen, Germany), (ii) PBS with protease inhibitor cocktail (PIC) (1:100; v/v) (Sigma-Aldrich, Steinheim, Germany). The mixtures were gently shaken for 1 h at 4°C to elute proteins and centrifuged; the supernatants were stored at -80°C. Total protein content of the supernatant was measured using the BioRad Protein Assay (BioRad Laboratories, Hercules, California, USA) essentially as described by the supplier. Samples were diluted to 1 mg/ml protein and extracts of five different donors were pooled; three different pools of five donors were used in all experiments. The samples are referred to as chronic wound extracts (CWE).
(§2) To determine the stability of the different peptides in CWE, histatins and cytokines were dissolved in PBS at 1 mg/ml. Histatins and cytokines were incubated in a 1:1 ratio with (i) PBS, (ii) CWE in PBS, or (iii) CWE in PBS containing PIC, in a total volume of 25 μl. Imidazole (Sigma-Aldrich) was added as an internal standard, with a final concentration of 100 μg/ml. The mixtures were incubated at 37°C, and samples were taken at 0, 24, 48, 72 and 96 h. For histatins containing mixtures, additional samples were taken after 2, 4, 8 and 16 h of incubation.
(§3) The samples were analyzed with a BioFocus 2000 capillary zone electrophoresis system (Bio-Rad Laboratories, Hercules, CA, USA) equipped with an uncoated fused-silica capillary of internal diameter 50 μm and a length of 24 cm. Samples were loaded by pressure injection (5 psi/sec). Separation was performed at 10 kV (cathode at the detector side) at 20°C using 0.1 M phosphate buffer (pH 2.5) as electrolyte and monitored continuously at 200 nm. Peaks were quantified with the BioFocus Integrator software. In order to quantify the percentage of intact peptides remaining after incubation with CWE, the ratios of histatins, rhIL-6 or rhCXCL8 to internal standard was set at 100% at 0h, and the ratios at the other incubation time points were related to this.

[2] = Stability in CWE with protease inhibitor cocktail (PIC), capillary zone electrophoresis; format: in vitro ADME, human; conditions: 37°C, CZE, 0 h = 100%; for Percentage intact, CWE + PIC 2h / Percentage intact, CWE + PIC 4h / Percentage intact, CWE + PIC 8h / Percentage intact, CWE + PIC 16h / Percentage intact, CWE + PIC 24h / Percentage intact, CWE + PIC 48h / Percentage intact, CWE + PIC 72h / Percentage intact, CWE + PIC 96h: 1 mg/ml in PBS mixed 1:1 with CWE (1 mg/ml protein, pool of 5 donors) in PBS containing PIC (final 1:140 v/v), ratio to imidazole
From the text: as §1, §2, §3

SHREFPFYGDYGS [mad-Hst1]
Percentage intact, CWE 2h ([1]; 0 h = 100%, experiment 1 of 3): 91.7%
Percentage intact, CWE 2h ([1]; 0 h = 100%, experiment 2 of 3): 99.5769%
Percentage intact, CWE 2h ([1]; 0 h = 100%, experiment 3 of 3): 98.2054%
Percentage intact, CWE 4h ([1]; 0 h = 100%, experiment 1 of 3): 84.5%
Percentage intact, CWE 4h ([1]; 0 h = 100%, experiment 2 of 3): 100.271%
Percentage intact, CWE 4h ([1]; 0 h = 100%, experiment 3 of 3): 91.5097%
Percentage intact, CWE 8h ([1]; 8 h, 0 h = 100%, experiment 1 of 3): 75.7%
Percentage intact, CWE 8h ([1]; 8 h, 0 h = 100%, experiment 2 of 3): 86.2011%
Percentage intact, CWE 8h ([1]; 8 h, 0 h = 100%, experiment 3 of 3): 78.6965%
Percentage intact, CWE 16h ([1]; 0 h = 100%, experiment 1 of 3): 69.2%
Percentage intact, CWE 16h ([1]; 0 h = 100%, experiment 2 of 3): 65.943%
Percentage intact, CWE 16h ([1]; 0 h = 100%, experiment 3 of 3): 57.6063%
Percentage intact, CWE 24h ([1]; 24 h, 0 h = 100%, experiment 1 of 3): 42.5808%
Percentage intact, CWE 24h ([1]; 24 h, 0 h = 100%, experiment 2 of 3): 50.836%
Percentage intact, CWE 24h ([1]; 24 h, 0 h = 100%, experiment 3 of 3): 32.6705%
Percentage intact, CWE 48h ([1]; 0 h = 100%, experiment 1 of 3): 12.2019%
Percentage intact, CWE 48h ([1]; 0 h = 100%, experiment 2 of 3): 19.3697%
Percentage intact, CWE 48h ([1]; 0 h = 100%, experiment 3 of 3): 24.0021%
Percentage intact, CWE 72h ([1]; 0 h = 100%, experiment 1 of 3): 1.49%
Percentage intact, CWE 72h ([1]; 0 h = 100%, experiment 2 of 3): 2.89%
Percentage intact, CWE 72h ([1]; 0 h = 100%, experiment 3 of 3): 2.789%
Percentage intact, CWE 96h ([1]; 0 h = 100%, experiment 1 of 3): 0.001%
Percentage intact, CWE 96h ([1]; 0 h = 100%, experiment 2 of 3): 0.001%
Percentage intact, CWE 96h ([1]; 0 h = 100%, experiment 3 of 3): 1.322%
remaining at 8 h, 0.5 mg/ml ([1]; human, chronic wound extracts (CWE), 1 mg/ml in PBS mixed 1:1 with CWE (1 mg/ml protein, pools of 5 donors), 8 h, 0 h = 100%, mean of 3 independent experiments, read-out: Original amount of peptide remaining intact after 8 h in CWE): 80%
remaining at 24 h, 0.5 mg/ml ([1]; human, chronic wound extracts (CWE), 1 mg/ml in PBS mixed 1:1 with CWE (1 mg/ml protein, pools of 5 donors), 24 h, 0 h = 100%, mean of 3 independent experiments, read-out: Original amount of peptide remaining intact after 24 h in CWE): 42%
metabolised at 8 h, 0.5 mg/ml ([1]; human, chronic wound extracts (CWE), incubation with chronic wound extracts, 8 h, read-out: Breakdown (degradation) in CWE in 8 h): ~20%
Percentage intact, CWE + PIC 2h ([2]; experiment 1 of 3): 100%
Percentage intact, CWE + PIC 2h ([2]; experiment 2 of 3): 98.3314%
Percentage intact, CWE + PIC 2h ([2]; experiment 3 of 3): 98.9861%
Percentage intact, CWE + PIC 4h ([2]; experiment 1 of 3): 97.1353%
Percentage intact, CWE + PIC 4h ([2]; experiment 2 of 3): 95.8953%
Percentage intact, CWE + PIC 4h ([2]; experiment 3 of 3): 98.3062%
Percentage intact, CWE + PIC 8h ([2]; experiment 1 of 3): 96.5658%
Percentage intact, CWE + PIC 8h ([2]; experiment 2 of 3): 92.2482%
Percentage intact, CWE + PIC 8h ([2]; experiment 3 of 3): 95.5781%
Percentage intact, CWE + PIC 16h ([2]; experiment 1 of 3): 90.0803%
Percentage intact, CWE + PIC 16h ([2]; experiment 2 of 3): 88.9151%
Percentage intact, CWE + PIC 16h ([2]; experiment 3 of 3): 87.9983%
Percentage intact, CWE + PIC 24h ([2]; 24 h, experiment 1 of 3): 92.5228%
Percentage intact, CWE + PIC 24h ([2]; 24 h, experiment 2 of 3): 84.6363%
Percentage intact, CWE + PIC 24h ([2]; 24 h, experiment 3 of 3): 83.1367%
Percentage intact, CWE + PIC 48h ([2]; experiment 1 of 3): 76.9205%
Percentage intact, CWE + PIC 48h ([2]; experiment 2 of 3): 78.1025%
Percentage intact, CWE + PIC 48h ([2]; experiment 3 of 3): 83.127%
Percentage intact, CWE + PIC 72h ([2]; experiment 1 of 3): 74.0975%
Percentage intact, CWE + PIC 72h ([2]; experiment 2 of 3): 73.8197%
Percentage intact, CWE + PIC 72h ([2]; experiment 3 of 3): 80.0857%
Percentage intact, CWE + PIC 96h ([2]; experiment 1 of 3): 76.9035%
Percentage intact, CWE + PIC 96h ([2]; experiment 2 of 3): 71.7331%
Percentage intact, CWE + PIC 96h ([2]; experiment 3 of 3): 77.8206%
remaining at 24 h, 0.5 mg/ml ([2]; human, with protease inhibitor cocktail (PIC), CWE with protease inhibitor cocktail (final 1:140 v/v), 24 h, mean of 3 independent experiments, read-out: Remaining fraction of intact peptide after 24 h in CWE + PIC): 87%
